Test results reported in the supplement of paper PMC11451515.

System: NOMO1
Experiment: cell viability relative to DMSO control; higher = less cytotoxic
Conditions: 48 h
In short: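 Library compounds in DMSO were pin-dosed into 1536-well plates (5 μl) holding NOMO1 or SEM (500 cells/well) or P12-Ichikawa (1000 cells/well) leukemia cells, across an 11-point threefold series of 47 μM to 0.79 nM. Each cell line had been adapted for at least four passages in each medium. CellTiter-Glo One luminescence was read after 48 h at 37°C. Viability is the per-plate percentage relative to DMSO wells, with cell-free wells as background.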

[1] = HPLM + 10% dialyzed FBS, 0.000781 µM
[2] = HPLM + 10% dialyzed FBS, 0.00234 µM
[3] = HPLM + 10% dialyzed FBS, 0.00702 µM
[4] = HPLM + 10% dialyzed FBS, 0.0211 µM
[5] = HPLM + 10% dialyzed FBS, 0.0632 µM
[6] = HPLM + 10% dialyzed FBS, 0.19 µM
[7] = HPLM + 10% dialyzed FBS, 0.569 µM
[8] = HPLM + 10% dialyzed FBS, 1.71 µM
[9] = HPLM + 10% dialyzed FBS, 5.12 µM
[10] = HPLM + 10% dialyzed FBS, 15.4 µM
[11] = HPLM + 10% dialyzed FBS, 46.1 µM
[12] = RPMI 5 mM glucose + 10% FBS, 0.000781 µM
[13] = RPMI 5 mM glucose + 10% FBS, 0.00234 µM
[14] = RPMI 5 mM glucose + 10% FBS, 0.00702 µM
[15] = RPMI 5 mM glucose + 10% FBS, 0.0211 µM
[16] = RPMI 5 mM glucose + 10% FBS, 0.0632 µM
[17] = RPMI 5 mM glucose + 10% FBS, 0.19 µM
[18] = RPMI 5 mM glucose + 10% FBS, 0.569 µM
[19] = RPMI 5 mM glucose + 10% FBS, 1.71 µM
[20] = RPMI 5 mM glucose + 10% FBS, 5.12 µM
[21] = RPMI 5 mM glucose + 10% FBS, 15.4 µM
[22] = RPMI 5 mM glucose + 10% FBS, 46.1 µM
[23] = RPMI 5 mM glucose + 10% dialyzed FBS, 0.000781 µM
[24] = RPMI 5 mM glucose + 10% dialyzed FBS, 0.00234 µM
[25] = RPMI 5 mM glucose + 10% dialyzed FBS, 0.00702 µM
[26] = RPMI 5 mM glucose + 10% dialyzed FBS, 0.0211 µM
[27] = RPMI 5 mM glucose + 10% dialyzed FBS, 0.0632 µM
[28] = RPMI 5 mM glucose + 10% dialyzed FBS, 0.19 µM
[29] = RPMI 5 mM glucose + 10% dialyzed FBS, 0.569 µM
[30] = RPMI 5 mM glucose + 10% dialyzed FBS, 1.71 µM
[31] = RPMI 5 mM glucose + 10% dialyzed FBS, 5.12 µM
[32] = RPMI 5 mM glucose + 10% dialyzed FBS, 15.4 µM
[33] = RPMI 5 mM glucose + 10% dialyzed FBS, 46.1 µM

`CC\1=C(C(\N=C(/N1)C2=CC(=NC=C2)Cl)C3=C(F)C=C(Cl)C=C3)/C(=O)NC4=C(F)C=C5[NH]N=CC5=C4` (configuration not stated) gave a cell viability [1] of 85.8%, a cell viability [2] of 97.5% and a cell viability [3] of 108%. It also gave a cell viability [4] of 116%, a cell viability [5] of 112% and a cell viability [6] of 96.7%. It also gave a cell viability [7] of 107%, a cell viability [8] of 110% and a cell viability [9] of 105%. It also gave a cell viability [10] of 115%, a cell viability [11] of 27% and a cell viability [12] of 101%. It also gave a cell viability [13] of 100%, a cell viability [14] of 101% and a cell viability [15] of 104%. The cell viability [16] was 95.3%, the cell viability [17] was 93.4% and the cell viability [18] was 95.7%. The cell viability [19] was 98.2%, the cell viability [20] was 89% and the cell viability [21] was 85.3%. It also gave a cell viability [22] of 29.4%, a cell viability [23] of 94.7% and a cell viability [24] of 96.6%. The cell viability [25] was 122%, the cell viability [26] was 111% and the cell viability [27] was 108%. For the same compound, the cell viability [28] was 99.8%, the cell viability [29] was 106% and the cell viability [30] was 98.2%. The cell viability [31] was 82.7%, the cell viability [32] was 97.3% and the cell viability [33] was 40.7%.

`CC(C)OC(=O)OCOP(=O)(CO[C@H](C)Cn1cnc2c(N)ncnc21)OCOC(=O)OC(C)C.O=C(O)C=CC(=O)O` gave a cell viability [1] of 98.7%, a cell viability [2] of 120% and a cell viability [3] of 120%. The cell viability [4] was 105%, the cell viability [5] was 133% and the cell viability [6] was 129%. The cell viability [7] was 126%, the cell viability [8] was 123% and the cell viability [9] was 104%. It also gave a cell viability [10] of 89.6%, a cell viability [11] of 53.1% and a cell viability [12] of 95.8%. It also gave a cell viability [13] of 121%, a cell viability [14] of 125% and a cell viability [15] of 116%. For the same compound, the cell viability [16] was 115%, the cell viability [17] was 128% and the cell viability [18] was 109%. It also gave a cell viability [19] of 118%, a cell viability [20] of 115% and a cell viability [21] of 103%. For the same compound, the cell viability [22] was 38.6%, the cell viability [23] was 117% and the cell viability [24] was 117%. It also gave a cell viability [25] of 112%, a cell viability [26] of 117% and a cell viability [27] of 124%. The cell viability [28] was 122%, the cell viability [29] was 128% and the cell viability [30] was 124%. The cell viability [31] was 114%, the cell viability [32] was 102% and the cell viability [33] was 15.1%.

In the case of `C[C@H](NC(=O)/C(C#N)=C/c1cccc(Br)n1)c1ccccc1`, the cell viability [12] is reported as 104%, the cell viability [13] is reported as 104% and the cell viability [14] is reported as 123%. It also gave a cell viability [15] of 112%, a cell viability [16] of 119% and a cell viability [17] of 98.1%. The cell viability [18] was 103%, the cell viability [19] was 87.7% and the cell viability [20] was 19%. For the same compound, the cell viability [21] was 8.24%, the cell viability [22] was 7.32% and the cell viability [23] was 99.5%. For the same compound, the cell viability [24] was 115%, the cell viability [25] was 109% and the cell viability [26] was 114%. The cell viability [27] was 107%, the cell viability [28] was 129% and the cell viability [29] was 115%. For the same compound, the cell viability [30] was 93.8%, the cell viability [31] was 38.8% and the cell viability [32] was 8.68%. The cell viability [33] was 6.9%.

Compound `N=C(CCSCc1csc(N=C(N)N)n1)N[S+](N)(=O)[O-]` has a cell viability [1] of 87%, a cell viability [2] of 95.6% and a cell viability [3] of 110%. The cell viability [4] was 101%, the cell viability [5] was 99.1% and the cell viability [6] was 83.2%. It also gave a cell viability [7] of 101%, a cell viability [8] of 115% and a cell viability [9] of 101%. For the same compound, the cell viability [10] was 91.8%, the cell viability [11] was 107% and the cell viability [12] was 80.2%. For the same compound, the cell viability [13] was 94.7%, the cell viability [14] was 94.8% and the cell viability [15] was 92%. For the same compound, the cell viability [16] was 92.2%, the cell viability [17] was 97.5% and the cell viability [18] was 93.8%. The cell viability [19] was 88.1%, the cell viability [20] was 99.1% and the cell viability [21] was 86.8%. For the same compound, the cell viability [22] was 88.3%, the cell viability [23] was 84.7% and the cell viability [24] was 96%. For the same compound, the cell viability [25] was 89.9%, the cell viability [26] was 92.1% and the cell viability [27] was 100%. It also gave a cell viability [28] of 106%, a cell viability [29] of 95.7% and a cell viability [30] of 93.7%. The cell viability [31] was 100%, the cell viability [32] was 97% and the cell viability [33] was 103%.

Compound `CC(C)NCC(O)COc1ccc(COCCOC(C)C)cc1` (configuration not stated) has a cell viability [1] of 114%, a cell viability [2] of 110% and a cell viability [3] of 121%. It also gave a cell viability [4] of 113%, a cell viability [5] of 122% and a cell viability [6] of 99.8%. For the same compound, the cell viability [7] was 118%, the cell viability [8] was 109% and the cell viability [9] was 109%. The cell viability [10] was 95.4%, the cell viability [11] was 73.1% and the cell viability [12] was 108%. It also gave a cell viability [13] of 116%, a cell viability [14] of 108% and a cell viability [15] of 107%. It also gave a cell viability [16] of 114%, a cell viability [17] of 116% and a cell viability [18] of 107%. It also gave a cell viability [19] of 110%, a cell viability [20] of 97.3% and a cell viability [21] of 103%. It also gave a cell viability [22] of 91.4%, a cell viability [23] of 111% and a cell viability [24] of 111%. It also gave a cell viability [25] of 119%, a cell viability [26] of 105% and a cell viability [27] of 129%. It also gave a cell viability [28] of 111%, a cell viability [29] of 111% and a cell viability [30] of 99.7%. The cell viability [31] was 111%, the cell viability [32] was 116% and the cell viability [33] was 88.7%.

Work on `Cc1cc(OCCCc2c(C(=O)O)n(Cc3cccnc3)c3c(-c4c(COc5ccc(N6CCN([S+](C)(=O)[O-])CC6)cc5)nn(C)c4C)cccc23)cc(C)c1Cl` yielded a cell viability [1] of 92.9%, a cell viability [2] of 112% and a cell viability [3] of 98.3%. It also gave a cell viability [4] of 107%, a cell viability [5] of 100% and a cell viability [6] of 104%. The cell viability [7] was 100%, the cell viability [8] was 92.7% and the cell viability [9] was 92.1%. It also gave a cell viability [10] of 87%, a cell viability [11] of 71.8% and a cell viability [12] of 86%. It also gave a cell viability [13] of 87.7%, a cell viability [14] of 94.8% and a cell viability [15] of 89.8%. It also gave a cell viability [16] of 95.6%, a cell viability [17] of 90.8% and a cell viability [18] of 87.7%. It also gave a cell viability [19] of 91.5%, a cell viability [20] of 82.4% and a cell viability [21] of 78.5%. It also gave a cell viability [22] of 74.9%, a cell viability [23] of 92.4% and a cell viability [24] of 90.5%. It also gave a cell viability [25] of 98.1%, a cell viability [26] of 98.4% and a cell viability [27] of 95.8%. It also gave a cell viability [28] of 86.1%, a cell viability [29] of 87.7% and a cell viability [30] of 98.2%. It also gave a cell viability [31] of 96.7%, a cell viability [32] of 91.2% and a cell viability [33] of 78.6%.
